Source: patent publication US8017618B2, “Antifolate agent combinations in the treatment of cancer” (Tracon Pharmaceuticals, Inc., priority 2006, dated 2011)
Read-outs that look alike come from different tables or passages of the source.

Columns and labels:
[1] = Oral and intravenous bioavailability study of MX via a single bolus administration to Sprague Dawley rats (plasma LC-MS/MS, noncompartmental PK); format: in vivo
Procedure: Oral and Intravenous Bioavailability Study of MX Via a Single Bolus Administration to Sprague Dawley Rats (Non-GLP). The studies described below were performed to evaluate the bioavailability of methoxyamine (MX) at the safe dose level by comparison of the pharmacokinetic parameters after single bolus oral and intravenous administrations of MX
Test Animals. Thirty male and thirty female Sprague Dawley rats, 250-350 g, 7-10 weeks of age, were used during the study.
Dose Preparation and Concentration. One dose solution was prepared on the same day of dose administration, adjusted for the 98% purity of the test article, to achieve a concentration of 4.00 mg/mL “active” MX, 816.77 mg of MX was dissolved into 5% dextrose in a 200-mL volumetric flask. The prepared solution was equally divided into two amber bottles designated for either oral or IV administration. Aliquots were taken for analysis at preparation and after dosing, transported on dry ice and stored at <−70° C.
Dose Administration. All animals were weighed on the day of dose administration. Individual animal doses were based on this body weight. A constant dose volume of 5 mL/kg was used. IV doses were administered through a single bolus injection into the tail vein using a 3-mL syringe attached to a 26G×1″ needle. The IV dose was administered at a rate of approximately 2 mL/min. Oral doses were administered as a single bolus with an 18G×2″ feeding needle attached to a 3-mL syringe.
Blood Sample Collection. Blood samples were collected at 5, 15, 30 mins, and 1, 2, 4, 6, 8, 12 and 24 hrs post-dose, with collection at two time points for each animal. Blood samples were collected through the jugular vein for the earlier time point and through the abdominal vein at sacrifice for the later time point. The blood was transferred from the drawing syringe into a 2 mL blood collection tube containing K3-EDTA as the anticoagulant and inverted to mix. Abdominal vein blood collection was performed immediately following CO2 euthanasia.
Plasma Sample Preparation and Storage Conditions. The blood tube was placed on wet ice before centrifugation for plasma preparation. Whole blood samples were centrifuged at 3,000 rpm at 4° C., for 10 min. Plasma was pipetted into tubes and placed on dry ice initially and later stored at <−70° C.
Mass spectrometry (MS). Mass spectrometric detection was performed by electrospray ionization with positive turbo spray, according to the specifications listed below.
Plasma Sample for LC-MS/MS Analysis. Individual plasma samples were thawed at ambient temperature and 250 μL was aliquoted for analysis if a dilution was not needed. Samples taken at 5 min to 1 hr from IV dosed animals or 15 min to 8 hr from orally dosed animals required 5-to 40-fold dilution to fall in the linear range of the method (1 to 1,000 ng/mL). For the samples requiring dilution, an appropriate volume was taken and mixed with blank rat plasma containing the same anticoagulant to make a total volume of 250 μL. The quantitation results were corrected with the dilution factor. Plasma was prepared for LC-MS/MS analysis as follows: • Plasma aliquots were vortexed for 30 seconds, and centrifuged at 14,000 rpm for 10 min to precipitate the interfering particles. • A 100 μL aliquot was taken from the supernatant and placed into a 1.5 mL microcentrifuge tube. • To the 100 μL plasma aliquot, 310 μL of H2O: formic acid (2:1), 30 μL of acenocoumerol (IS) in H2O (10 μg/mL) and 100 μL of diethylaminobenzaldehyde in 2:1H2O: formic acid solution (10 mg/mL) were added and mixed well. • The mixture was then incubated in a water bath at 80° C. for 2 hrs. After incubation, the supernatant was transferred into a HPLC vial for LC-MS/MS quantitation.
Methoxyamine (MX) Pharmacokinetics and Bioavailability Analysis. Pharmacokinetics Analysis. […]

HCT116 tumors = experiment: Tumors in nude mice: HCT116 colon cancer cell line model; format: in vivo, female athymic HSD nude mice; conditions: MX 4 mg/kg with pemetrexed 150 mg/kg, five daily i.p. injections
Procedure: (§1) Tumors in Nude Mice. […] Animals received five daily intraperitoneal injections of either saline, pemetrexed alone (150 mg/kg), MX alone (4 mg/kg), or a combination of pemetrexed (150 mg/kg) and MX (4 mg/kg) with a pemetrexed to MX ratio of […].

topoisomerase II = experiment: Topoisomerase II-mediated DNA cleavage of AP or MX-AP site substrates; format: biochemical; conditions: AP site at a topoisomerase II cleavage site, incubated with MX
Procedure: Analysis of the effect of AP site or MX-AP site on topoisomerase II-mediated DNA cleavage. A position-specific apurinic site was incorporated by replacing a single nucleoside with deoxyuridine at a topoisomerase II cleavage site and then removing the uracil base with uracil-DNA glycosylase, generating AP sites that further are incubated with MX to produce MX-AP sites (FIG. 5A).
First, it was determined whether APE has a differential effect between regular AP sites and MX-AP sites located in a position specific site for topo II cleavage.

NCI-H460 tumors = experiment: Tumors in nude mice: NCI-H460 NSCLC cell line model; format: in vivo, female athymic HSD nude mice; conditions: MX 4 mg/kg with pemetrexed 150 mg/kg, five daily i.p. injections
Procedure: as §1

H460 cells = conditions: for formation of AP sites: pemetrexed 100, 200 and 400 μM, 24 hours, induction proportional to dose
Procedure: To determine the effect of pemetrexed+methoxyamine (MX) compared to pemetrexed alone on the number of AP sites generated, an aldehyde reactive probe (ARP) reagent was used to measure AP sites formed by pemetrexed and blocked by MX. ARP and MX have a similar reactivity with AP sites, and react specifically with an aldehyde group, an open-ring form of the AP sites. […] H460 cells were treated with pemetrexed (0, 100, 200 or 400 μm) for 24 hours. DNA (15 μg) was then extracted from cells and incubated with 1 mM ARP at 37° C. for 10 min. DNA was precipitated and washed with ethanol, then resuspended in TE buffer (10 mM Tris-HCl, pH 7.2, 1 mM EDTA) and denatured at 100° C. for 5 min. The DNA was then quickly chilled on ice and mixed with an equal amount of ammonium acetate (2 M). Single-stranded DNA was then immobilized on a nitrocellulose membrane using a vacuum filter device. The membrane was incubated with streptavidin-conjugated horseradish peroxidase at room temperature for 30 min and rinsed with washing buffer (20 mM Tris-HCl, 1 mM EDTA, 0.26 M NaCl, 1% Tween-20). ARP-AP sites were visualized with ECL reagents (Amersham, Piscataway, N.J.). […] The effect of the combination of 200 μM pemetrexed and 6 mM MX was viewed at 24 hrs, 48 hrs and 72 hrs.

[2] = both sexes, Sprague-Dawley, rat, in vivo, po, 20 mg/kg
[3] = female, Sprague-Dawley, rat, in vivo, 20 mg/kg
[4] = female, Sprague-Dawley, rat, in vivo, iv, 20 mg/kg
[5] = female, Sprague-Dawley, rat, in vivo, po, 20 mg/kg
[6] = male, Sprague-Dawley, rat, in vivo, 20 mg/kg
[7] = male, Sprague-Dawley, rat, in vivo, iv, 20 mg/kg
[8] = male, Sprague-Dawley, rat, in vivo, po, 20 mg/kg

CON [MX, Methoxyamine]
half-life ([1]; Sprague-Dawley, rat, in vivo, po): > 4 h
serum levels following oral dosing versus target Cmax associated with activity in mouse models of human cancer ([1]; Sprague-Dawley, rat, in vivo, po, 20 mg/kg): > 50 ng/mL
half-life ([1]; both sexes, Sprague-Dawley, rat, in vivo): 4 to 6 h
Tmax [1, 2]: 0.5 to 1 h
bioavailability [1, 2]: ~100%
Bioavailability (absolute, oral to IV AUC0-∞5 ratio) [1, 3]: 94%
F [1, 3]: 0.94
distribution phase complete (time postdose) ([1]; female, Sprague-Dawley, rat, in vivo, iv): approximately 2 hrs
AUC0-∞5 (AUC0-∞ normalized to a total dose amount of 5 mg MX) [1, 4]: 13892 ng·h/mL
AUC(0-inf) [1, 4]: 13100 ng·h/mL
AUC(0-t) [1, 4]: 13000 ng·h/mL
Cmax [1, 4]: 11000 ng/mL
Tmax [1, 4]: 0.08 h
half-life [1, 4]: 4.6 h
AUC(0-inf) [1, 5]: 12000 ng·h/mL
AUC(0-t) [1, 5]: 11600 ng·h/mL
Cmax [1, 5]: 2960 ng/mL
Tmax [1, 5]: 0.5 h
half-life [1, 5]: 5.7 h
Bioavailability (absolute, oral to IV AUC0-∞5 ratio) [1, 6]: 110%
F [1, 6]: 1.1
distribution phase complete (time postdose) ([1]; male, Sprague-Dawley, rat, in vivo, iv): approximately 2 hrs
AUC0-∞5 (AUC0-∞ normalized to a total dose amount of 5 mg MX) [1, 7]: 11284 ng·h/mL
AUC(0-inf) [1, 7]: 12700 ng·h/mL
AUC(0-t) [1, 7]: 12500 ng·h/mL
Cmax [1, 7]: 15500 ng/mL
Tmax [1, 7]: 0.08 h
half-life [1, 7]: 5.2 h
AUC0-∞5 (AUC0-∞ normalized to a total dose amount of 5 mg MX) [1, 8]: 12420 ng·h/mL
AUC(0-inf) [1, 8]: 13800 ng·h/mL
AUC(0-t) [1, 8]: 13600 ng·h/mL
Cmax [1, 8]: 2200 ng/mL
Tmax [1, 8]: 1 h
half-life [1, 8]: 4.2 h
clinical signs of toxicity ([1]; rats, 20 mg/kg body weight intravenously or orally): no clinical signs of toxicity
reversal of resistance to pemetrexed chemotherapy (HCT116 tumors): reversed resistance
topoisomerase II-mediated cleavage of MX-AP sites (topoisomerase II): MX-AP sites are able to stimulate topoisomerase II-mediated DNA cleavage
reversal of resistance to pemetrexed chemotherapy (NCI-H460 tumors): reversed resistance

Nc1nc2[nH]cc(CCc3ccc(C(=O)N[C@@H](CCC(=O)O)C(=O)O)cc3)c2c(=O)[nH]1 [pemetrexed, 2-[4-[2-(4-amino-2-oxo-3,5,7-triazabicyclo[4.3.0]nona-3,8,10-trien-9-yl)ethyl]benzoyl]aminopentanedioic acid]
number of detectable AP sites over time (H460 cells; 200 μM pemetrexed, 6 mM MX, 24 hrs, 48 hrs and 72 hrs): number of detectable AP sites were reduced
formation of AP sites (H460 cells): induces the formation of AP sites
formation of AP sites (H460 cells; listed as Pemetrexed): induced the formation of AP sites
